From publication PMC6825221, “In silico re-engineering of a neurotransmitter to activate KCNQ potassium channels in an isoform-specific manner” (Communications Biology, 2019)
Several values for one entry are separate records, joined by “and”; a condition that tells them apart may be missing. Equal entries are not always repeated. Entries after “also recorded” stand apart in the source; their conditions may differ.

Tests used:
[1] = molecular target: KCNQ2/3 (Homo sapiens, UniProt O43525+O43526); test: TEVC of KCNQ2/3 channels expressed in Xenopus oocytes; format: cell-based
Description: (§1) We generated cRNA transcripts encoding human KCNQ1, KCNQ2, KCNQ3, KCNQ4, KCNQ5 or GLRA1 (NM_001146040) (GenScript, Piscataway, NJ, USA) by in vitro transcription using the T7 polymerase mMessage mMachine kit (Thermo Fisher Scientific), after vector linearization, from cDNA sub-cloned into plasmids incorporating Xenopus laevis β-globin 5′ and 3′ UTRs flanking the coding region to enhance translation and cRNA stability. We quantified cRNA by spectrophotometry. […] We injected defolliculated stage V and VI Xenopus laevis oocytes (Ecocyte Bioscience, Austin, TX and Xenoocyte, Dexter, MI) with KCNQ channel α subunit (5-20 ng) or GLRA1 (20 ng) cRNAs. We incubated the oocytes at 16 °C in Barth’s saline solution (Ecocyte Bioscience) containing penicillin and streptomycin, with daily washing, for 2–5 days prior to two-electrode voltage-clamp (TEVC) recording.
(§2) For recording, oocytes were placed in a small-volume oocyte bath (Warner) and viewed them with a dissection microscope. Chemicals were sourced from Sigma, Matrix Scientific and Santa Cruz. […] All stock solutions were diluted in bath solution on the day of experiments. KCNQ2/3 channel activation was screened for using either 30 µM or 100 µM concentrations of each of the six compounds, then dose responses were conducted as appropriate. Bath solution was (in mM): 96 NaCl, 4 KCl, 1 MgCl2, 1 CaCl2, 10 HEPES (pH 7.6). Compounds were introduced into the oocyte recording bath by gravity perfusion at a constant flow of 1 ml per minute for 3 min prior to recording. Pipettes were of 1–2 MΩ resistance when filled with 3 M KCl. Currents were recorded in response to voltage pulses between −120 or −80 mV and + 40 mV at 20 mV intervals from a holding potential of −80 mV, to yield current-voltage relationships, current magnitude, and for quantifying activation rate. We analyzed data using Clampfit (Molecular Devices) and Graphpad Prism software (GraphPad, San Diego, CA, USA); values are stated as mean ± SEM. We plotted raw or normalized tail currents versus prepulse voltage and fitted with a single Boltzmann function:1 g=(A1−A2)/1+exp(V12−V)∕VS+A2, where g is the normalized tail conductance, A1 is the initial value at −∞, A2 is the final value at +∞, V1/2 is the half-maximal voltage of activation and Vs the slope factor. Activation, deactivation, wash-in and washout kinetics were fitted with single exponential functions to yield a τ value.

[2] = molecular target: KCNQ1 (Homo sapiens, UniProt P51787); test: TEVC of homomeric KCNQ1 expressed in Xenopus oocytes; format: cell-based; details: dose response, ΔV0.5act
Description: We generated cRNA transcripts encoding human KCNQ1, KCNQ2, KCNQ3, KCNQ4, KCNQ5 or GLRA1 (NM_001146040) (GenScript, Piscataway, NJ, USA) by in vitro transcription using the T7 polymerase mMessage mMachine kit (Thermo Fisher Scientific), after vector linearization, from cDNA sub-cloned into plasmids incorporating Xenopus laevis β-globin 5′ and 3′ UTRs flanking the coding region to enhance translation and cRNA stability. We quantified cRNA by spectrophotometry. We generated mutant KCNQ2 and KCNQ3 cDNAs by site-directed mutagenesis using a QuikChange kit (Stratagene, San Diego, CA) and prepared the corresponding cRNAs as above. We injected defolliculated stage V and VI Xenopus laevis oocytes (Ecocyte Bioscience, Austin, TX and Xenoocyte, Dexter, MI) with KCNQ channel α subunit (5-20 ng) or GLRA1 (20 ng) cRNAs. We incubated the oocytes at 16 °C in Barth’s saline solution (Ecocyte Bioscience) containing penicillin and streptomycin, with daily washing, for 2–5 days prior to two-electrode voltage-clamp (TEVC) recording.
We performed TEVC at room temperature using an OC-725C amplifier (Warner Instruments, Hamden, CT) and pClamp10 software (Molecular Devices, Sunnyvale, CA) 2–5 days after cRNA injection as described in the section above. For recording, oocytes were placed in a small-volume oocyte bath (Warner) and viewed them with a dissection microscope. Chemicals were sourced from Sigma, Matrix Scientific and Santa Cruz. […] All stock solutions were diluted in bath solution on the day of experiments. KCNQ2/3 channel activation was screened for using either 30 µM or 100 µM concentrations of each of the six compounds, then dose responses were conducted as appropriate. […] Currents were recorded in response to voltage pulses between −120 or −80 mV and + 40 mV at 20 mV intervals from a holding potential of −80 mV, to yield current-voltage relationships, current magnitude, and for quantifying activation rate. We analyzed data using Clampfit (Molecular Devices) and Graphpad Prism software (GraphPad, San Diego, CA, USA); values are stated as mean ± SEM. […]

[3] = molecular target: KCNQ2 (Homo sapiens, UniProt O43526); test: TEVC of homomeric KCNQ2 expressed in Xenopus oocytes; format: cell-based
Description: as §1, §2

[4] = molecular target: KCNQ3*-W265L (Homo sapiens, UniProt O43525, A315T/W265L); test: TEVC of homomeric KCNQ3*-W265L; format: cell-based
Description: (§3) We generated cRNA transcripts encoding human KCNQ1, KCNQ2, KCNQ3, KCNQ4, KCNQ5 or GLRA1 (NM_001146040) (GenScript, Piscataway, NJ, USA) by in vitro transcription using the T7 polymerase mMessage mMachine kit (Thermo Fisher Scientific), after vector linearization, from cDNA sub-cloned into plasmids incorporating Xenopus laevis β-globin 5′ and 3′ UTRs flanking the coding region to enhance translation and cRNA stability. We quantified cRNA by spectrophotometry. We generated mutant KCNQ2 and KCNQ3 cDNAs by site-directed mutagenesis using a QuikChange kit (Stratagene, San Diego, CA) and prepared the corresponding cRNAs as above. […]
(§4) We performed TEVC at room temperature using an OC-725C amplifier (Warner Instruments, Hamden, CT) and pClamp10 software (Molecular Devices, Sunnyvale, CA) 2–5 days after cRNA injection as described in the section above. […] Currents were recorded in response to voltage pulses between −120 or −80 mV and + 40 mV at 20 mV intervals from a holding potential of −80 mV, to yield current-voltage relationships, current magnitude, and for quantifying activation rate. We analyzed data using Clampfit (Molecular Devices) and Graphpad Prism software (GraphPad, San Diego, CA, USA); values are stated as mean ± SEM. […]

[5] = molecular target: KCNQ2/KCNQ3-W265L (Homo sapiens, UniProt O43525+O43526, W265L); test: TEVC of KCNQ2/3 with KCNQ3-W265L mutation; format: cell-based
Description: as §3, §4

[6] = molecular target: KCNQ3* (Homo sapiens, UniProt O43525, A315T); test: [3H]GABA binding and competition, oocytes expressing KCNQ3*; details: 100 µM
Description: Oocytes were then washed four times in 16 °C ND96, transferred to individual wells in a 96 well plate and lysed in 0.2% SDS in ND96. Each oocyte lysate was transferred to a scintillation vial containing 5 ml Cytoscint scintillation cocktail fluid (MP Biomedicals, Santa Ana, CA). Vials were capped, shaken, and then allowed to sit at room temperature for at least 30 min before scintillation counting in a Beckmann Coulter LS6500 liquid scintillation counter.

[7] = 100 µM, −60 mV, single exponential fit

KCNQ2/3, sequence (O43525 whole entry): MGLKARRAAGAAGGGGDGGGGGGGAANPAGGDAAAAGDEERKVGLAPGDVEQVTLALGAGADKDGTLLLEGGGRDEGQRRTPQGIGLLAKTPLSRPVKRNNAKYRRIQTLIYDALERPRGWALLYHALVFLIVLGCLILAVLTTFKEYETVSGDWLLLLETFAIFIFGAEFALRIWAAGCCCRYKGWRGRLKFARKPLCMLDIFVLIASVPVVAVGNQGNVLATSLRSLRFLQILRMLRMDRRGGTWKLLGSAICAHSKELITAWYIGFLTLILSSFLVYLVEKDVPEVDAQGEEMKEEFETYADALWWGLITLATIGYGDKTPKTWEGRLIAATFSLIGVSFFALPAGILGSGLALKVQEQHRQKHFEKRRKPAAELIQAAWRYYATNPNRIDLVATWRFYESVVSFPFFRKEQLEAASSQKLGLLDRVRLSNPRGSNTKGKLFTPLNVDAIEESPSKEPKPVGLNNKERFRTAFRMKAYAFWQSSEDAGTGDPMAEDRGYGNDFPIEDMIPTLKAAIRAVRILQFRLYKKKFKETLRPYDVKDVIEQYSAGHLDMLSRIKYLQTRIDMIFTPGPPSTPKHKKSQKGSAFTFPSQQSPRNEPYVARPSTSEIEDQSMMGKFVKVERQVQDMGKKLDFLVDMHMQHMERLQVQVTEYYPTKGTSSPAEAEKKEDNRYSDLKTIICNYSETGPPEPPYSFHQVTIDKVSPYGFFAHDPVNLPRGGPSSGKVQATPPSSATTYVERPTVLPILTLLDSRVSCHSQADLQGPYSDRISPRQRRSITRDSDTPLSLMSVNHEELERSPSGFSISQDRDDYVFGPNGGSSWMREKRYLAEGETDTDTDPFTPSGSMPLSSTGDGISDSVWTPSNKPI
KCNQ2/3, sequence (O43526 whole entry): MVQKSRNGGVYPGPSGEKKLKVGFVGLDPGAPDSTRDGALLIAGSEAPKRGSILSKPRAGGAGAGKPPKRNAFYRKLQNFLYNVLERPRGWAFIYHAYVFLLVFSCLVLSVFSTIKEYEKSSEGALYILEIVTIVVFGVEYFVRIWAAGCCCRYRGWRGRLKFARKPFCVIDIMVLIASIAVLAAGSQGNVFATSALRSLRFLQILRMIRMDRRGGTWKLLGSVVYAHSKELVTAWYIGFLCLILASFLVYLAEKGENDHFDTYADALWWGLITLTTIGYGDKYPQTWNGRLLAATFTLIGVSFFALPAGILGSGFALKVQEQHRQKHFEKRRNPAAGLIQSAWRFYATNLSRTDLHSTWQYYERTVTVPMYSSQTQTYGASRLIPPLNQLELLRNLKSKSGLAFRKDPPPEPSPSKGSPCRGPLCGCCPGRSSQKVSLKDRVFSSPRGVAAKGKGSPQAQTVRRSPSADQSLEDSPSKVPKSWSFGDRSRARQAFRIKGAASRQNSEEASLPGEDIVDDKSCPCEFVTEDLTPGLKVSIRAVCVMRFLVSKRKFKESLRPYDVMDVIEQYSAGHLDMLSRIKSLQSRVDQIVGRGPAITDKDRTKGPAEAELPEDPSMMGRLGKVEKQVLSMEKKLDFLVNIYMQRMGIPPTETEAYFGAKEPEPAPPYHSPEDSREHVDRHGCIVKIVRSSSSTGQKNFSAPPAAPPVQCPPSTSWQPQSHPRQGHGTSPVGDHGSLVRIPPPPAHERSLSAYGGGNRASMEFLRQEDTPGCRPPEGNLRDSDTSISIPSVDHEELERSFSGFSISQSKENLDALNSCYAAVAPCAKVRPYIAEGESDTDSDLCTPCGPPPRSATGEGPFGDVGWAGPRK

Question: What does the source list for `CS(=O)(=O)N(CC(=O)O)c1cccc(F)c1` [3FMSG]?
Answer: KCNQ2/3 activation and deactivation rates ([1]; 100 µM, single exponential fit (τ)): speeded KCNQ2/3 activation and slowed its deactivation; tau of KCNQ2/3 current decrease during washout [1, 7]: 40 s and 39 ± 10 s; tau of KCNQ2/3 current increase during wash-in [1, 7]: ~ 15 s and 15 ± 3 s; increase in KCNQ2/3 current at −60 mV ([1]; either compound alone, 1 uM): ~ fivefold; EC50 ([1]; shift in voltage dependence of activation (ΔV0.5act), TEVC in oocytes, read-out: EC50, KCNQ2/3 activation): 51 ± 21 nM; effects on KCNQ1 [2]: negligible or much less potent effects; effect of a tenfold excess (100 µM) on KCNQ2 activation by 2FPG (10 µM) [3]: subtly reduced the efficacy of 2FPG; effects on KCNQ2 ([3]; dose response): negligible or much less potent effects; maximal efficacy, KCNQ3*-W265L versus KCNQ3* [4]: reduced by half; reduction of sensitivity by the W265L mutation versus KCNQ3* [4]: 44 fold; effect of the KCNQ3-W265L mutation within KCNQ2/3 [5]: dependent on KCNQ3-W265; also recorded: eliminated effects of 3FMSG; competition of GABA binding to KCNQ3* [6]: able to compete out GABA binding
